What was measured:
[1] = test system: P. aeruginosa expressing IMP-1, efflux− (MB9799); experiment: Efflux: concentration of MBL inhibitor which restores susceptibility to imipenem; type: cell-based, Pseudomonas aeruginosa; conditions: imipenem at 2 μg/mL, in the presence of a class A, C, D serine β-lactamase inhibitor closely related to relebactam
From the text: (§1) The strain background is Pseudomonas aeruginosa PAO1.

[2] = test system: P. aeruginosa expressing IMP-1, efflux+ (MB9798); type: cell-based, Pseudomonas aeruginosa; conditions: for P. aeruginosa expressing IMP-1, efflux+ (MB9798) MITC95: imipenem at 2 μg/mL, in the presence of a class A, C, D serine β-lactamase inhibitor closely related to relebactam; for Efflux ratio: ratio MITC95 PA_9798/MITC95 PA_9799
From the text: as §1

VIM-1 = VIM-1 (Pseudomonas aeruginosa (strain ATCC 15692 / DSM 22644 / CIP 104116 / JCM 14847 / LMG 12228 / 1C / PRS 101 / PAO1), UniProt A0A0F7KYQ8); experiment: biochemical; conditions: CCF2-FA substrate, 2 hours at 25° C
In short: (§2)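 Enzyme activity was measured by fluorescence using CCF2-FA, a cephalosporin-linked 7-hydroxycoumarin/fluorescein substrate, with inhibitor, metallo-β-lactamase and substrate incubated together for 2 hours at 25° C. IC50 came from a 4-parameter fit of inhibition versus log inhibitor concentration.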

NDM-1 = NDM-1 (Klebsiella pneumoniae, UniProt C7C422); experiment: biochemical; type: biochemical; conditions: CCF2-FA substrate, 2 hours at 25° C; read-out: NDM-1 IC50
Chain of NDM-1 (C7C422 whole entry, looked up, species assumed): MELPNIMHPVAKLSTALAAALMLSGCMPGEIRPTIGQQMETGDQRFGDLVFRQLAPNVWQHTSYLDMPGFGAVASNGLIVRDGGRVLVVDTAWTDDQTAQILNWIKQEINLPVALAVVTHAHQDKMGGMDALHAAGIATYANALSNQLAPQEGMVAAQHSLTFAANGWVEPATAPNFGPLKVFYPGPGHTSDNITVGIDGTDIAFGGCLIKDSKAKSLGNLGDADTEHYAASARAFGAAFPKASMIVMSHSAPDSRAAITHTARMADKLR
In short: as §2

IMP-1 = IMP-1 (Serratia marcescens, UniProt P52699); experiment: biochemical; type: biochemical; conditions: CCF2-FA substrate, 2 hours at 25° C; read-out: IMP-1 IC50
Chain of IMP-1 (P52699 whole entry, looked up, species assumed): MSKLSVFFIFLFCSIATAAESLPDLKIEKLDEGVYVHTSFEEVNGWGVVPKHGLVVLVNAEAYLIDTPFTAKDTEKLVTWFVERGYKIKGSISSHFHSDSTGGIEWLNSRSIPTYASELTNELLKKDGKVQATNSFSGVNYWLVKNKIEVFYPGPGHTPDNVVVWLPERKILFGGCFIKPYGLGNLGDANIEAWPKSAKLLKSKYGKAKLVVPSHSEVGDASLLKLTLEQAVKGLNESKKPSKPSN
In short: as §2

[3] = test system: Serratia marcescens expressing IMP-1 (CL5741); type: cell-based; conditions: with imipenem 1 μg/ml, 95% inhibition of bacterial growth; for Serratia marcescens MITC95: IMP-1 (CL5741)
In short: (§3)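 Restoration of imipenem susceptibility (1 μg/ml imipenem) was judged by absorbance after 22–24 h at 35° C. Test compound was added to bacteria suspended 1:100 in 1.1× CAMHB from overnight blood-agar cultures.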

[4] = test system: Escherichia coli expressing NDM-1 (CLB30005, CLB30016); type: cell-based; conditions: with imipenem 1 μg/ml, 95% inhibition of bacterial growth; for Escherichia coli MITC95: NDM-1 (CLB30016)
In short: as §3

[5] = test system: Klebsiella pneumoniae expressing VIM-1 (IHMA599644); type: cell-based; conditions: with imipenem 1 μg/ml, 95% inhibition of bacterial growth; for Klebsiella pneumoniae MITC95: VIM-1 (IHMA599644)
In short: as §3

| Compound | P. aeruginosa expressing IMP-1, efflux− (MB9799) MITC95 [1] | P. aeruginosa expressing IMP-1, efflux+ (MB9798) MITC95 [2] | Efflux ratio [2] | IC50 (VIM-1) | IC50 (NDM-1) | IC50 (IMP-1) | Serratia marcescens expressing IMP-1 (CL5741) MITC95 [3] | Escherichia coli expressing NDM-1 (CLB30016) MITC95 [4] | Klebsiella pneumoniae expressing VIM-1 (IHMA599644) MITC95 [5] | Serratia marcescens MITC95 [3] | Escherichia coli MITC95 [4] | Klebsiella pneumoniae MITC95 [5] |
| --- | --- | --- | --- | --- | --- | --- | --- | --- | --- | --- | --- | --- |
| Cn1c(N)nc2c(-c3ccc(S(C)(=O)=O)c(S(N)(=O)=O)c3-c3nn[nH]n3)cccc21 [Example 192, 3-(2-amino-1-methyl-1H-benzo[d]imidazol-4-yl)-6-(methylsulfonyl)-2-(2H-tetrazol-5-yl)benzenesulfonamide] | 0.7813 µM | 3.125 µM | 4.00 | 0.194 nM | 1 nM | 0.552 nM | 1.563 µM | 0.7813 µM | 3.125 µM |  |  |  |
| NCCS(=O)(=O)c1ccc(-c2ccc(-c3nn[nH]n3)cc2)c(-c2nnn[nH]2)c1S(N)(=O)=O.O=C(O)C(F)(F)F [Example 151, 2-((3-sulfamoyl-2-(1H-tetrazol-5-yl)-4′-(2H-tetrazol-5-yl)-[1,1′-biphenyl]-4-yl)sulfonyl)ethanaminium 2,2,2-trifluoroacetate] | 3.125 µM | 12.5 µM | 4.00 | 0.544 nM | 0.271 nM | 0.191 nM | 12.5 µM | 12.5 µM | 25 µM |  |  |  |
| NC(=O)N1CCC(S(=O)(=O)c2ccc(-c3cccc4nc(N)[nH]c34)c(-c3nn[nH]n3)c2S(N)(=O)=O)CC1 [Example 49, 4-(4-(2-amino-3H-benzo[d]imidazol-4-yl)-2-sulfamoyl-3-(2H-tetrazol-5-yl)phenylsulfonyl)piperidine-1-carboxamide] | 3.125 µM | 12.5 µM | 4.00 | 0.308 nM | 0.278 nM | 1.37 nM | 6.25 µM | 6.25 µM | 6.25 µM |  |  |  |
| NCCS(=O)(=O)c1ccc(-c2cccc(NC(=O)CN)c2NC(=O)CN)c(-c2nn[nH]n2)c1S(N)(=O)=O [Example 338, N,N′-(4′-((2-Aminoethyl)sulfonyl)-3′-sulfamoyl-2′-(2H-tetrazol-5-yl)-[1,1′-biphenyl]-2,3-diyl)bis(2-aminoacetamide)] | 6.25 µM | 25 µM | 4.00 | 15.1 nM | 20.4 nM | 74.9 nM |  |  |  | 3.125 µM | 1.563 µM | 6.25 µM |
| NC1CCC(c2ccc(S(=O)(=O)CC3CNC3)c(S(N)(=O)=O)c2-c2nnn[nH]2)CC1 (stereo not drawn) [Example 203, 3-(4-aminocyclohexyl)-6-((azetidin-3-ylmethyl)sulfonyl)-2-(1H-tetrazol-5-yl)benzenesulfonamide] | 0.7813 µM | 3.125 µM | 4.00 | 0.591 nM | 11.2 nM | 22.9 nM | 1.563 µM | 3.125 µM | 1.563 µM |  |  |  |
| Cl.Cl.NCCCS(=O)(=O)c1ccc(-c2cccc3[nH]c(N)nc23)c(-c2nn[nH]n2)c1S(N)(=O)=O [Example 270, 3-(2-amino-1H-benzo[d]imidazol-4-yl)-6-(3-aminopropylsulfonyl)-2-(2H-tetrazol-5-yl)benzenesulfonamide dihydrochloride] | 0.4453 µM | 0.4453 µM | 1.00 | 0.228 nM | 0.143 nM | 0.625 nM |  |  |  | 0.6406 µM | 0.125 µM | 0.8906 µM |

— patent publication US10227331B2 (priority 2015, dated 2019)
